Laboratory results from DBAASP.
Values after ≈ are worked out from the molar mass of the structure shown.

How the values were obtained:
Experiment in all cases: ≥ marks a high value that may be exact or a test limit, other limits are often not marked, values filed in µg/mL are converted to µM
[1] = system: Escherichia coli ATCC 25922
[2] = system: Staphylococcus aureus ATCC 25923
[3] = system: Candida albicans ATCC 20032
[4] = system: Bacillus subtilis ATCC 6633
Escherichia coli B = system: Escherichia coli B
Staphylococcus aureus = system: Staphylococcus aureus
[5] = system: Staphylococcus haemolyticus
Bacillus megaterium = system: Bacillus megaterium
Klebsiella pneumoniae = system: Klebsiella pneumoniae
Salmonella typhimurium = system: Salmonella typhimurium
[6] = system: Salmonella enterica subsp. enterica serovar Enteritidis
Enterobacter cloacae = system: Enterobacter cloacae
Candida krusei ATCC 6258 = system: Candida krusei ATCC 6258
Escherichia coli BL21 = system: Escherichia coli BL21
[7] = system: Candida parapsilosis ATCC 22019
[8] = system: Cryptococcus neoformans ATCC 208821
Bacillus subtilis 168 = system: Bacillus subtilis 168
Escherichia coli ESBL = system: Escherichia coli ESBL
Candida albicans SC5314 = system: Candida albicans SC5314
[9] = system: Candida tropicalis ATCC 750
[10] = system: Fusarium oxysporum f. sp. lycopersici ATCC 201829
[11] = system: Penicillium expansum EPS 26
[12] = system: Aspergillus niger CECT 2694
[13] = system: Rhizopus stolonifer CECT 2344
[14] = system: Trichosporon beigelii KCTC 7707
[15] = system: Salmonella typhimurium KCTC 1926
[16] = system: Staphylococcus epidermidis KCTC 3096
[17] = system: Bacillus subtilis KCTC 1918
[18] = system: Pseudomonas aeruginosa KCTC 1637
[19] = system: Saccharomyces cerevisiae KCTC 7296
[20] = system: Candida albicans TIMM 1768
[21] = system: Staphylococcus aureus KCTC 1621
[22] = system: Streptococcus pyogenes KCTC 3096
[23] = system: Escherichia coli KCTC 1682
Proteus vulgaris = system: Proteus vulgaris
[24] = system: Bacillus megaterium KCTC 1096

`CC[C@H](C)[C@H](NC(=O)CN)C(=O)NCC(=O)NCC(=O)N[C@H](C(=O)N[C@@H](CC(C)C)C(=O)N[C@@H](CC(C)C)C(=O)NCC(=O)N[C@@H](C)C(=O)NCC(=O)N[C@@H](CCCCN)C(=O)N[C@@H](C)C(=O)N[C@H](C(=O)N[C@@H](CC(C)C)C(=O)N[C@@H](CCCCN)C(=O)NCC(=O)N[C@@H](CC(C)C)C(=O)N[C@@H](C)C(=O)N[C@@H](CCCCN)C(=O)N[C@H](C(=O)N[C@@H](CC(C)C)C(=O)N[C@@H](C)C(=O)N[C@@H](CCC(=O)O)C(=O)N[C@@H](CCCCN)C(=O)N[C@@H](Cc1ccc(O)cc1)C(=O)N[C@@H](C)C(=O)N[C@@H](CC(N)=O)C(N)=O)C(C)C)[C@@H](C)O)C(C)C` [GIGGVLLGAGKATLKGLAKVLAEKYAN] showed an MIC [1] greater than 38.3 µM, an MIC [2] of 7.19 µM (≈ 18.8 µg/mL) and an MIC [3] of no less than 38.3 µM. It also gave an MIC [4] of no less than 38.3 µM.
`CC[C@H](C)[C@H](NC(=O)[C@@H](NC(=O)[C@@H]1CCCN1C(=O)[C@@H](NC(=O)[C@@H](NC(=O)[C@H](CCCN=C(N)N)NC(=O)[C@@H]1CCCN1C(=O)[C@@H](NC(=O)[C@@H](NC(=O)[C@H](Cc1cnc[nH]1)NC(=O)[C@H](CCCCN)NC(=O)[C@H](C)NC(=O)[C@@H](NC(=O)[C@H](CO)NC(=O)CNC(=O)[C@H](CC(C)C)NC(=O)[C@@H](NC(=O)[C@H](CO)NC(=O)[C@H](Cc1ccccc1)NC(=O)[C@H](CC(C)C)NC(=O)CN)C(C)C)C(C)C)C(C)C)C(C)C)C(C)C)C(C)C)C(C)C)C(=O)N[C@@H](C)C(=O)N[C@@H](CCC(=O)O)C(=O)N[C@@H](Cc1cnc[nH]1)C(=O)N[C@@H](CC(C)C)C(N)=O` [GLFSVLGSVAKHVVPRVVPVIAEHL] was tested, and the MIC (Escherichia coli B) was 25 µM (≈ 65.6 µg/mL), the MIC (Staphylococcus aureus) was greater than 100 µM and the MIC [5] was no less than 50 µM. The MIC (Bacillus megaterium) was no less than 100 µM, the MIC (Klebsiella pneumoniae) was 25 µM (≈ 65.6 µg/mL) and the MIC (Salmonella typhimurium) was no less than 100 µM. For the same compound, the MIC [6] was no less than 100 µM and the MIC (Enterobacter cloacae) was no less than 50 µM.
With `CC[C@H](C)[C@H](N)C(=O)N[C@H](C(=O)N[C@@H](CCCCN)C(=O)N[C@@H](CCCCN)C(=O)N[C@H](C(=O)N[C@H](C(=O)N[C@@H](CCCCN)C(=O)N[C@@H](CCCCN)C(=O)N[C@H](C(=O)N[C@H](C(=O)N[C@@H](CCCCN)C(=O)N[C@@H](CCCCN)C(N)=O)[C@@H](C)CC)[C@@H](C)CC)[C@@H](C)CC)[C@@H](C)CC)[C@@H](C)CC` [IIKKIIKKIIKK] the MIC (Candida krusei ATCC 6258) was no less than 100 µM, the MIC (Escherichia coli BL21) was 30 µM (≈ 44 µg/mL) and the MIC [7] was no less than 1600 µM. It also gave an MIC [8] of 25 µM (≈ 36.6 µg/mL), an MIC (Bacillus subtilis 168) of 5 µM (≈ 7.33 µg/mL) and an MIC (Staphylococcus aureus) of 30 µM (≈ 44 µg/mL). It also gave an MIC (Escherichia coli ESBL) of 20 µM (≈ 29.3 µg/mL), an MIC (Candida albicans SC5314) of no less than 800 µM and an MIC [9] of no less than 100 µM.
In the case of `CC[C@H](C)[C@H](N)C(=O)N[C@@H](CC(C)C)C(=O)NCC(=O)N1CCC[C@H]1C(=O)N[C@H](C(=O)N[C@@H](CC(C)C)C(=O)NCC(=O)N[C@@H](CC(C)C)C(=O)N[C@@H](CC(=O)O)C(=O)NCC(=O)N[C@@H](CC(N)=O)C(=O)N[C@@H](C)C(=O)N[C@@H](CC(C)C)C(=O)NCC(=O)NCC(=O)N[C@@H](CC(C)C)C(=O)N[C@H](C(=O)N[C@@H](CCCCN)C(=O)N[C@@H](CCCCN)C(=O)N[C@H](C(N)=O)[C@@H](C)CC)[C@@H](C)CC)C(C)C` [ILGPVLGLDGNALGGLIKKI], the MIC [1] is reported as greater than 51 µM, the MIC [2] is reported as greater than 51 µM and the MIC [3] is reported as no less than 51 µM. For the same compound, the MIC [4] was no less than 51 µM.
`CC[C@H](C)[C@H](NC(=O)[C@H](CCCCN)NC(=O)[C@H](CCCCN)NC(=O)[C@H](Cc1ccccc1)NC(=O)[C@H](CC(C)C)NC(=O)[C@H](CCCCN)NC(=O)[C@@H](N)CCCCN)C(=O)N[C@@H](CC(C)C)C(=O)N[C@@H](CCCCN)C(=O)N[C@@H](CCCCN)C(=O)N[C@@H](CC(C)C)C(N)=O` [KKLFKKILKKL] showed an MIC [10] of 0.849 µM (≈ 1.18 µg/mL), an MIC [11] of no less than 100 µM and an MIC [12] of 22.4 µM (≈ 31 µg/mL). For the same compound, the MIC [13] was no less than 70.7 µM.
For `CC(C)C[C@H](NC(=O)[C@H](CCCCN)NC(=O)[C@H](CC(C)C)NC(=O)[C@H](CCCCN)NC(=O)[C@H](CC(C)C)NC(=O)[C@@H]1CCCN1C(=O)[C@H](CCCCN)NC(=O)[C@H](CCCCN)NC(=O)[C@H](CC(C)C)NC(=O)[C@H](CC(C)C)NC(=O)[C@@H](N)CCCCN)C(N)=O` [KLLKKPLKLKL], the MIC [14] was 6.3 µM (≈ 8.32 µg/mL), the MIC [15] was 0.8 µM (≈ 1.06 µg/mL) and the MIC [16] was 6.3 µM (≈ 8.32 µg/mL). For the same compound, the MIC [17] was 12.5 µM (≈ 16.5 µg/mL), the MIC [18] was 6.3 µM (≈ 8.32 µg/mL) and the MIC [19] was 25 µM (≈ 33 µg/mL). It also gave an MIC [20] of 25 µM (≈ 33 µg/mL).
`CC[C@H](C)[C@H](NC(=O)[C@H](CCCCN)NC(=O)[C@H](CCCCN)NC(=O)[C@H](Cc1ccccc1)NC(=O)[C@H](CC(C)C)NC(=O)[C@H](CCCCN)NC(=O)[C@H](Cc1c[nH]c2ccccc12)NC(=O)[C@@H](N)CCCCN)C(=O)NCC(=O)N1CCC[C@H]1C(=O)NCC(=O)N[C@@H](CCCCN)C(=O)N[C@@H](Cc1ccccc1)C(=O)N[C@@H](CC(C)C)C(=O)N[C@@H](Cc1cnc[nH]1)C(=O)N[C@@H](CO)C(=O)N[C@@H](C)C(=O)N[C@@H](CCCCN)C(=O)N[C@@H](CCCCN)C(=O)N[C@@H](Cc1ccccc1)C(N)=O` [KWKLFKKIGPGKFLHSAKKF] showed an MIC [21] of 3.12 µM (≈ 7.46 µg/mL), an MIC [15] of 0.78 µM (≈ 1.86 µg/mL) and an MIC [17] of 0.78 µM (≈ 1.86 µg/mL). For the same compound, the MIC [18] was 0.78 µM (≈ 1.86 µg/mL), the MIC [22] was 0.78 µM (≈ 1.86 µg/mL) and the MIC [23] was 3.12 µM (≈ 7.46 µg/mL).
In the case of `CC[C@H](C)[C@H](NC(=O)[C@H](CCCCN)NC(=O)[C@H](CCCCN)NC(=O)[C@H](Cc1ccccc1)NC(=O)[C@H](CC(C)C)NC(=O)[C@H](CCCCN)NC(=O)[C@H](Cc1c[nH]c2ccccc12)NC(=O)[C@@H](N)CCCCN)C(=O)N1CCC[C@H]1C(=O)N[C@@H](Cc1ccccc1)C(=O)N[C@@H](CC(C)C)C(=O)N[C@@H](Cc1cnc[nH]1)C(=O)N[C@@H](CC(C)C)C(=O)N[C@@H](C)C(=O)N[C@@H](CCCCN)C(=O)N[C@@H](CCCCN)C(=O)N[C@@H](Cc1ccccc1)C(N)=O` [KWKLFKKIPFLHLAKKF], the MIC [21] is reported as 3.12 µM (≈ 6.79 µg/mL), the MIC [17] is reported as 0.78 µM (≈ 1.69 µg/mL) and the MIC [18] is reported as 6.25 µM (≈ 13.6 µg/mL). The MIC (Proteus vulgaris) was 1.56 µM (≈ 3.39 µg/mL), the MIC [24] was 1.56 µM (≈ 3.39 µg/mL) and the MIC [23] was 6.25 µM (≈ 13.6 µg/mL).
